Columns and labels:
inflammation and plaque = assay: Average disease scores (aortic sinus histology) in high-fat diet mice, Example 1; format: in vivo, mouse; settings: FIG. 9; per group and time point; gavage 150 μmol/kg
Protocol: For a pilot study, forty-eight 10-week old male C57/Bl6 mice were obtained from Jackson Laboratories. Three mice were raised from 6 weeks on a regular diet and served as controls, and the remaining 45 were raised on a 60% fat diet (D12451, DIO series diet, Opensource Diets). For a bacterial dosage test, sixteen 10-week old male C57/Bl6 mice were divided into four treatment groups and maintained on a normal diet.
3,3′,4,4′-Tetrachlorobiphenyl (PCB-77) was obtained from Neosyn Laboratories. 100 mg of the dry chemical was suspended in 15.22 ml of corn oil to deliver 150 μmol/kg in 0.2 ml per mouse. […]
The hearts were prepared as frozen sections: they were mounted in blocks, and 10 μm-thick sections were cut through the aortic valve, to yield 30 sections per mouse. […] Multiple 10-μm sections at the level of the aortic sinus were analyzed for the presence of Oil Red O lipid staining, plaque size, amount of fibrous tissue, and inflammation. The percentage of the lumen occupied by the first three features was calculated using Image Pro Plus. […] The level of inflammation in each section was scored on the following scale: 0=no inflammatory cells observed, 1=few macrophages with no giant cells, 2=foam cells present, 3=foam cells with cholesterol, 4=foam cells, giant cells, and cholesterol present. […]

TNF-α = target: T1, TNF-α (Homo sapiens, UniProt P01375); settings: humans; 2009 Atherosclerosis 202:296-303; cited from earlier work
T1 construct: host or cells: human subjects (in vivo, endogenous TNF-α)
T1 sequence (P01375 77-233 limits assumed): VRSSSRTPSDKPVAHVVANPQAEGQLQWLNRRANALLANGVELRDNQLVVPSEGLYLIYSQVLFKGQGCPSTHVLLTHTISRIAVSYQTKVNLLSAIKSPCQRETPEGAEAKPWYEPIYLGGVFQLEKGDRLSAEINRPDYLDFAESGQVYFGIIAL

## Clc1ccc(-c2ccc(Cl)c(Cl)c2)cc1Cl [PCB77, 3,3′,4,4′-Tetrachlorobiphenyl]
Inflammation and plaque
  risk factor for producing inflammation and plaque (average disease scores): most significant risk factor to producing inflammation and plaque

## etanercept
TNF-α
  shedding of glycocalyx constituents, coagulation activation, vessel function: reduces the shedding of glycocalyx constituents, coagulation activation, and functional vessel function
